Laboratory results taken from paper PMC12072223 (CPT: Pharmacometrics & Systems Pharmacology, 2025).
Values joined by “and” are separate entries in the source; they are usually repeats but may differ in a detail not shown here. Equal entries are not always repeated. Where two headings read alike, the source gives them in different places. Each block holds one molecule with its values, some of them ahead of it.

Key:
[1] = biological target: T1, OAT3 (Homo sapiens, UniProt Q8TCC7); test: Inhibition of OAT3-mediated uptake in transfected HEK293 cells; type: in vitro ADME; conditions: from in vitro IC50 values
T1 sequence (Q8TCC7 1-542): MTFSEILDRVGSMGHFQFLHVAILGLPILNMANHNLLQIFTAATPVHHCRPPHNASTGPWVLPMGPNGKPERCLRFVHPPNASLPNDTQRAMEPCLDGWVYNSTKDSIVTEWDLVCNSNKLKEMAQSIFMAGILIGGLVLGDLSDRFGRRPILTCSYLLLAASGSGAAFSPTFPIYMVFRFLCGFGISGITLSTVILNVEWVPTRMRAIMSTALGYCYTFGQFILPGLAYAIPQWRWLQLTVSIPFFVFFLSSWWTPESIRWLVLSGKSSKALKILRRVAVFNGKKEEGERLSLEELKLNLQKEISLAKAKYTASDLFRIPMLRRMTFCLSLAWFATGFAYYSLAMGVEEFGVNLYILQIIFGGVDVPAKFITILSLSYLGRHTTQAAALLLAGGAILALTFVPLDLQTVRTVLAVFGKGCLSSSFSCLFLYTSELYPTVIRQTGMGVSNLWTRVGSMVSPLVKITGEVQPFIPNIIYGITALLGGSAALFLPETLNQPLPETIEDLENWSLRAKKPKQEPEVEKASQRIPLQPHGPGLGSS

[2] = biological target: T2, OAT2 (Homo sapiens, UniProt Q9Y694); test: PDA uptake in OAT2-transfected HEK293 cells and RAF scaling; type: in vitro ADME
T2 sequence (Q9Y694 1-546 isoform Q9Y694-2): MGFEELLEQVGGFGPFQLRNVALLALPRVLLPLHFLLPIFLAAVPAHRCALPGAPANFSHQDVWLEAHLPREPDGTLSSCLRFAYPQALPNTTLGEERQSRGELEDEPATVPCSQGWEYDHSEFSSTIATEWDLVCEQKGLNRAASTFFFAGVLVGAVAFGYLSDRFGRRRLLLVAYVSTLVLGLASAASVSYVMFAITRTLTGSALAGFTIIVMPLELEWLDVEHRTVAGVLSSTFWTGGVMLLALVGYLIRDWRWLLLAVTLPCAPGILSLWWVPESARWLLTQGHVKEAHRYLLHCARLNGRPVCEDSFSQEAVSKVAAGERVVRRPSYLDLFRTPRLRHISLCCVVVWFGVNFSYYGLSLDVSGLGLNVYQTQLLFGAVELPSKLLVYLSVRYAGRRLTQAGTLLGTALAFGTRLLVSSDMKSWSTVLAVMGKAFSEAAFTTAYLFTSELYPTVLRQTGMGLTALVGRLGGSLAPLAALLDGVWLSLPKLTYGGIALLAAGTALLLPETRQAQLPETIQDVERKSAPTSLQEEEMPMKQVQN

[3] = PDA plasma and urine levels at baseline in five clinical studies; type: in vivo, human; conditions: for AUC(0-t) / Cmax / concentration at 0 min / CL renal: human; for AUC(0-t) / Cmax / concentration at 0 min: plasma; for AUC(0-t): AUC0-24h; for concentration at 0 min: predose (0 min) plasma concentration; for CL renal: CLR
[4] = set-up: species or system human; conditions: PDA; in vitro-in vivo scaling
[5] = biological target: T3, OAT1 (Homo sapiens, UniProt Q4U2R8); test: PDA uptake in OAT1-transfected HEK293 cells and RAF scaling; type: in vitro ADME
T3 sequence (Q4U2R8 1-563): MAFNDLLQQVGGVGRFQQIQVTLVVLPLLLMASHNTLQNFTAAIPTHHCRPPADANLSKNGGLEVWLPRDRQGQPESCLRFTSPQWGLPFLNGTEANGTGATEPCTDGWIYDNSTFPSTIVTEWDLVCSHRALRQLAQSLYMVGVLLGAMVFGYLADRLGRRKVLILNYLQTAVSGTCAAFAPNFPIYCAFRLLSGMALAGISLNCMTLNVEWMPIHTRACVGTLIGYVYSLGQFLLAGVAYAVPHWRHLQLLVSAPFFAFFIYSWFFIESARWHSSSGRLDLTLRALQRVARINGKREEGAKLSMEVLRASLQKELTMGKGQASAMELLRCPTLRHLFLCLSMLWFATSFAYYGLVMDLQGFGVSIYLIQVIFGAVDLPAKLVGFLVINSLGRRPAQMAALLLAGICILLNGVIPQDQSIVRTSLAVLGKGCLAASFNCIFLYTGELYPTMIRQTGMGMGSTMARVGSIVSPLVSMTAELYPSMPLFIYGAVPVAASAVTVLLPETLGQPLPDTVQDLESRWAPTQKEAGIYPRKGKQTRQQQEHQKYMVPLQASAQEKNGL

[6] = test system: OAT1/3; test: Effect of OAT inhibitors on PDA pharmacokinetics in clinical DDI studies; conditions: for AUC ratio / Cmax ratio: PDA; for AUC(0-t) / Cmax: both, human, in vivo
[7] = PDA, cited from earlier work
[8] = test system: OAT1/3; conditions: PDA, cited from earlier work
[9] = biological target: T1, OAT3; test: PDA uptake in OAT3-transfected HEK293 cells and RAF scaling; type: in vitro ADME
[10] = physiological scalars and relative activity factors
[11] = both, PDA plasma, Study 1 baseline (no inhibitor), n=12
[12] = both, PDA plasma, Study 2 baseline, n=12
[13] = both, PDA plasma, Study 3 baseline, n=12
[14] = male, PDA plasma, Study 5 baseline, males, n=23
[15] = presence/absence of probenecid 1000 mg BID, Study 1
[16] = presence/absence of ritlecitinib 200 mg QD, Study 2
[17] = Shen 2019 Study 1, presence/absence of probenecid
[18] = Shen 2019 Study 1, probenecid 1000 mg single oral dose
[19] = Shen 2019 Study 2, presence/absence of probenecid
[20] = Shen 2019 Study 2, probenecid 1000 mg single oral dose
[21] = Willemin 2021, presence/absence of probenecid
[22] = Willemin 2021, probenecid 500 mg multiple oral doses

potency as inhibitor for OAT3 versus OAT1 [1]: 5 fold
Compound: CCCN(CCC)S(=O)(=O)c1ccc(C(=O)O)cc1 [Probenecid]

ft (fraction transported) OAT2 ([2]; PDA renal secretion): < 0.1
contribution of OAT2-specific active secretion to total CLR ([2]; PDA, in vitro-in vivo scaling): 6%
active uptake clearance via OAT2, scaled [2, 10]: 0.35 mL/min/kg
intra-individual variability in plasma concentration across 0-24 h ([3]; PDA): 16 % CV
amount excreted unchanged in urine lower in White males than Japanese males ([3]; PDA, Studies 4 and 5): 35%
variability in predose plasma concentrations and AUC0-24h ([3]; PDA, across the five studies): < 6 fold
inter-individual (overall) variability in plasma concentration ([3]; PDA, all five studies, n = 71): ~ 40% and < 40%
overall variability in AUC0-24h ([3]; PDA, five studies): 38%
overall variability in predose plasma concentration ([3]; PDA, five studies): 44%
AUC0-24h / baseline plasma level higher in White males than Japanese males ([3]; PDA, p < 0.05): 38%
CLR lower in White males than Japanese males ([3]; PDA, p < 0.05): ~ 54%
amount excreted in urine higher in Japanese males than White males ([3]; PDA, p < 0.05): 1.5 fold
renal clearance higher in Japanese males than White males ([3]; PDA, p < 0.05): 2.2 fold and ~ 2.2 fold
average AUC0-24h and Cmax lower in Hispanic/Latino compared to Whites ([3]; PDA, p > 0.05): ~ 30%
AUC0-24h higher in Study 5 compared to Study 4 ([3]; PDA, ~70% White males vs all Japanese males): 35%
AUC(0-t) [3, 11]: 86.7 ± 47.4 ng·h/mL
AUC(0-t) [3, 12]: 70.5 ± 24.3 ng·h/mL
AUC(0-t) [3, 13]: 64.2 ± 21.2 ng·h/mL
Cmax [3, 11]: 4.6 ± 2.5 ng/mL
Cmax [3, 12]: 3.8 ± 1.3 ng/mL
Cmax [3, 13]: 3.5 ± 1.1 ng/mL
concentration at 0 min ([3]; both, mean, PDA, across the five studies): 3.3 ng/mL
concentration at 0 min ([3]; both, range, PDA, across the five studies): 1.6 to 9.2 ng/mL
AUC(0-t) ([3]; male, PDA plasma baseline, males only, Japanese (13)): 56.5 ± 15.2 ng·h/mL
AUC(0-t) ([3]; male, PDA plasma baseline, males only, White (37)): 78.2 ± 28.2 ng·h/mL
AUC(0-t) [3, 14]: 74.6 ± 15.7 ng·h/mL
Cmax [3, 14]: 4.6 ± 1.9 ng/mL
CL renal ([3]; male, urine and plasma, PDA, Study 5 baseline): 230 ± 54.2 mL/min
CL renal ([3]; male, urine, PDA, Japanese males (13)): 546 ± 122 mL/min
CL renal ([3]; male, urine, PDA, White males (16)): 250 ± 48.2 mL/min
contribution of glomerular filtration to total CLR [4]: 5% and ~ 5%
ft (fraction transported) OAT1 ([5]; PDA renal secretion): < 0.1
contribution of OAT1-specific active secretion to total CLR ([5]; PDA, in vitro-in vivo scaling): 7%
active uptake clearance via OAT1, scaled [5, 10]: 3.31 mL/min/kg
AUC ratio [6, 15]: 3.2
Cmax ratio [6, 15]: 3
AUC ratio [6, 16]: 1.1
Cmax ratio [6, 16]: 1.1
AUC ratio ([6]; presence/absence of tafamidis 61 mg, Study 3): 1.2
AUC(0-t) ([6]; 200 mg): 72.8 ± 22.6 ng·h/mL
Cmax ([6]; 200 mg): 3.9 ± 1 ng/mL
AUC(0-t) ([6]; 1000 mg): 235 ± 76 ng·h/mL
Cmax ([6]; 1000 mg): 11.9 ± 3.4 ng/mL
ft (fraction transported) OAT3 ([9]; PDA renal secretion): 0.82
active uptake clearance via OAT3, scaled [9, 10]: 7.55 mL/min/kg
Compound: Cc1ncc(CO)c(C(=O)O)c1O [PDA, Pyridoxic acid]
fu,plasma [7]: 0.08–0.1
fu,plasma ([7]; ref 13 (supplement ref 7)): 0.092
inter-individual variability in predose plasma concentrations ([8]; Indian population): 33 fold and ~ 33 fold
AUC0-24h ([8]; Shen 2019 Study 1, baseline): 46 ± 53.7 ng·h/mL
CLR ([8]; Shen 2019 Study 1, baseline): 226.7 ± 268.3 mL/min
Cmax ([8]; Shen 2019 Study 1, baseline): 3.3 ± 4.6 ng/mL
AUC ratio [8, 17]: 3.1
CLR ratio [8, 17]: 0.37
Cmax ratio [8, 17]: 3.1
AUC0-24h [8, 18]: 116 ± 151 ng·h/mL
CLR [8, 18]: 65 ± 55 mL/min
Cmax [8, 18]: 9.3 ± 11.5 ng/mL
AUC0-24h ([8]; Shen 2019 Study 2, baseline): 57.9 ± 75.7 ng·h/mL
CLR ([8]; Shen 2019 Study 2, baseline): 221.7 ± 221.7 mL/min
Cmax ([8]; Shen 2019 Study 2, baseline): 3.6 ± 4.5 ng/mL
AUC ratio [8, 19]: 3.2
CLR ratio [8, 19]: 0.4
Cmax ratio [8, 19]: 3.4
AUC0-24h [8, 20]: 152 ± 174 ng·h/mL
CLR [8, 20]: 67.6 ± 41.2 mL/min
Cmax [8, 20]: 10.1 ± 10.2 ng/mL
AUC0-24h ([8]; Willemin 2021, baseline): 71.8 ± 21.3 ng·h/mL
CLR ([8]; Willemin 2021, baseline): 328.3 ± 203.3 mL/min
Cmax ([8]; Willemin 2021, baseline): 3.6 ± 0.8 ng/mL
AUC ratio [8, 21]: 3.7
CLR ratio [8, 21]: 0.17
Cmax ratio [8, 21]: 3.7
AUC0-24h [8, 22]: 271 ± 93 ng·h/mL
CLR [8, 22]: 53.3 ± 25 mL/min
Cmax [8, 22]: 13.7 ± 4.1 ng/mL

change in PDA plasma concentration in the clinic ([6]; ritlecitinib): no‐change
change in the AUC0-24h and Cmax of PDA ([6]; ritlecitinib administration, Study 2): no significant change
Compound: C=CC(=O)N1C[C@H](Nc2ncnc3[nH]ccc23)CC[C@@H]1C [Ritlecitinib]
